In patent publication US20190208782A1, “PROCESSING COMPOSITION FOR C[…] WEEDS” (Arch Chemicals, Inc., priority 2018, published 2019):

Tested on: water hyacinth
Assay: Fluroxypyr ester and four potassium salt formulations as foliar application on water hyacinth (Example 5)
Format: in vivo
Description: Materials and Methods: Water hyacinth was obtained from field locations in Mississippi and cultured in a 300 gallon tank outdoors. Water in the culture tank was amended with 30 mg/L Miracle-Gro fertilizer (14-8-16) every week to maintain plant growth. Once a sufficient density of water hyacinth had been achieved in the culture tank, rosettes of similar size were harvested and divided so that six to seven rosettes were placed into each of 33, 100 gallon treatment tanks. The treatment tanks were filled to a depth of 45 cm with water. Water was amended with 30 mg/L of Miracle-Gro fertilizer to maintain plant growth. Plants were allowed to grow until the water surface in each tank had been covered by water hyacinth.
After the growth period plants were treated as a foliar spray based on the formulations and rates in Table 7. The treatments contained the fluroxypyr herbicide in an amount of 15% by weight. Each surfactant was added in an amount of 10% by weight. The remainder of the formulation was distilled water. Treatments were applied using water as a carrier in a fine foliar spray at a total spray volume of 100 gal/acre using a CO2 pressurized backpack sprayer and single nozzle boom. AB Brand Adjuvant was included in the herbicide solution at a rate of 0.25% v:v.
After treatment, each tank was rated for percent control from 0 to 100% control every week for four weeks. At four weeks after treatment (WAT) a 0.1 m^2 PVC quadrat was used to harvest 1 biomass sample from each tank if living biomass was present. Biomass samples were placed into labeled paper bags, dried in a forced air oven at 50 C for five days, and then weighed to determine dry weight biomass (g/DW/m^2). Differences between treatments were analyzed using ANOVA and means separated using a Fisher's Protected LSD test. All analyses were conducted a p≤0.05 significance level.

Compound: CCCCCCC(C)OC(=O)COc1nc(F)c(Cl)c(N)c1Cl (stereo not drawn) [Fluroxypyr ester, [(4-amino-3,5-dichloro-6-fluoro-2-pyridinyl)oxy]acetic acid, 1-methylheptyl ester]
- efficacy on water hyacinth biomass relative to the other fluroxypyr treatments (4 WAT, Ester 8 oz/acre, potassium salt formulations 10 oz/acre, FIG. 6): not as efficacious as the other fluroxypyr treatments
- Mean percent control ratings of water hyacinth (8 oz/acre foliar, 1 WAT): 20%
- Mean percent control ratings of water hyacinth (8 oz/acre foliar, 2 WAT): 25%
- Mean percent control ratings of water hyacinth (8 oz/acre foliar, 3 WAT): 55%
- Mean percent control ratings of water hyacinth (8 oz/acre foliar, 4 WAT): 75%
- Mean percent control ratings of water hyacinth (16 oz/acre foliar, 1 WAT): 20%
- Mean percent control ratings of water hyacinth (16 oz/acre foliar, 2 WAT): 45%
- Mean percent control ratings of water hyacinth (16 oz/acre foliar, 3 WAT): 85%
- Mean percent control ratings of water hyacinth (16 oz/acre foliar, 4 WAT): 95%
